Results on seven molecules are retold here after ChEMBL document CHEMBL6127084, “Exploration of the tunability of BRD4 degradation by DCAF16 trans-labelling covalent glues” (Eur J Med Chem, 2024).

Data set [1] concerns the target T1, DDB1- and CUL4-associated factor 16/Bromodomain-containing protein 4 (Homo sapiens, UniProt O60885+Q9NXF7). The data set is described as follows: Molecular glue degradation (MGD) activity at DCAF16/BRD4 in human K562 cells assessed as maximum degradation incubated for 16 hrs by fluorescent stability reporter assay relative to control. It counts as cell-based.

For data set [2], the target named is T1, DDB1- and CUL4-associated factor 16/Bromodomain-containing protein 4. Kind of data set: Molecular glue degradation (MGD) activity at DCAF16/BRD4 in human K562 cells incubated for 16 hrs. Format: cell-based.
A short description of data set [3]: Stability of compound in PBS assessed as half lives incubated for 1 hrs by LC-MS/MS analysis. It counts as physicochemical.
Data set [4] can be described thus: Glutathione reactivity in PBS buffer assessed as half lives incubated for 1 hrs by LC-MS/MS analysis. Format: physicochemical.
Another data set has as its system K562. Kind of data set: Induction of eGF-tagged BRD4 BD2 degradation in DCAF16 knock out human K562 cells at 1 uM incubated for 16 hrs by Western blot analysis. Format: cell-based.
A further data set relates to Jurkat. Kind of data set: Molecular glue degradation (MGD) activity at BRD4 in DCAF16 knock out human Jurkat cells assessed as BRD4 degradation at 0.01 to 10 uM incubated for 6 hrs by Nano-Glo HiBiT assay. It counts as cell-based. As to conditions: dose 0.01-10 µM.
Data set [5] has as its target T1, DDB1- and CUL4-associated factor 16/Bromodomain-containing protein 4. The data set is described as follows: Binding affinity to His-tagged BRD4 BD2 (unknown origin) assessed as ternary complex formation at 0.001 to 100 uM incubated for 1 to 24 hrs by TR-FRET assay. It counts as protein assay. As to conditions: dose 0.001-100 µM, time 1-24 hrs.
Data set [6] shares this target. The data set is described as follows: Molecular glue degradation (MGD) activity at DCAF16/ BRD4 BD2 in human K562 cells transfected with […] incubated for 16 hrs by fluorescent stability reporter assay. Format: cell-based. As to conditions: dose 0.001-10 µM.
For data set [7] the target is unchanged. Kind of data set: Molecular glue degradation (MGD) activity at DCAF16/BRD4 in human K562 cells assessed as covalent-engagement of DCAF16 by measuring BRD4 degradation at 1 uM preincubated for 4 hrs followed by compound addition measured after 24 hrs (no washout experiment) by Western blot analysis. As to conditions: time 28.0 hrs. It counts as cell-based.

Data set [8] shares this target. The data set is described as follows: Binding affinity to DCAF16/eGF-tagged BRD4 BD2 (unknown origin) assessed as ternary complex formation by measuring maximum TR-FRET ratio at 100 uM incubated for 1 hrs by TR-FRET assay. It counts as protein assay.
For data set [9] the target is unchanged. Kind of data set: Binding affinity to DCAF16/eGF-tagged BRD4 BD2 (unknown origin) assessed as ternary complex formation by measuring maximum TR-FRET ratio at 100 uM incubated for 24 hrs by TR-FRET assay. It counts as protein assay.
Data set [10] has the same target. The data set is described as follows: Molecular glue degradation (MGD) activity at DCAF16/BRD4 in wild type human Jurkat cells assessed as BRD4 degradation at 10 nM incubated for 6 hrs by Nano-Glo HiBiT assay. Format: cell-based.
For data set [11] the target is unchanged. The data set is described as follows: Molecular glue degradation (MGD) activity at DCAF16/BRD4 in wild type human Jurkat cells assessed as BRD4 degradation at < 100 nM incubated for 6 hrs by Nano-Glo HiBiT assay. Format: cell-based.
Data set [12] shares this target. Kind of data set: Molecular glue degradation (MGD) activity at DCAF16/BRD4 BD2 in human K562 cells assessed as maximum degradation at 10 uM incubated for 16 hrs by fluorescent stability reporter assay relative to control. It counts as cell-based.
Data set [13] shares this target. The data set is described as follows: Potency index, ratio of GNE011 MIC to test compound MIC for molecular glue degradation (MGD) activity at DCAF16/BRD4 BD2 in human K562 cells assessed as maximum degradation at 10 uM incubated for 16 hrs by fluorescent stability reporter assay. It counts as cell-based.

Activity calls are given as the source filed them. The rule behind the calls is not given here. A value given as a limit tells only on which side of the number the result lay.

T1 sequence (Q9NXF7 whole entry, looked up, other chains not shown): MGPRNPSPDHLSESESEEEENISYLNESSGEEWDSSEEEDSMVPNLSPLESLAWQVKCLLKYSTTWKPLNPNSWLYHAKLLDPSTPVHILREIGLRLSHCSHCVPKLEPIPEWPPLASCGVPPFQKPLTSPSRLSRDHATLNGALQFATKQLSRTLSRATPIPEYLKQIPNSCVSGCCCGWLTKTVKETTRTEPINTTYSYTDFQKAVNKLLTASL

Regarding `Cc1sc2c(c1C)C(c1ccc(C#CC(N)=O)cc1)=N[C@@H](CC(=O)OC(C)(C)C)c1nncn1-2`, in [1], the Emax was determined as 69%. In data set [2], this molecule registered a DC50 of 0.051 µM. Moreover, the values for the half-life in data set [3] and in data set [4] were above 12.5 h and 6.33 h, respectively. In addition, the result in the data set with K562 and with Jurkat was inactive.

Consider `Cc1sc2c(c1C)C(c1ccc(C#CCO)cc1)=N[C@@H](CC(=O)OC(C)(C)C)c1nncn1-2`, for which the Emax in data set [1] amounted to 10%. The molecule also displayed a DC50 in data set [2] above 10 µM. The outcome in data set [5] was inactive.

In the case of `Cc1sc2c(c1C)C(c1ccc(/C=C/C(N)=O)cc1)=N[C@@H](CC(=O)OC(C)(C)C)c1nncn1-2`, the result in [6] and in [5] was inactive. Also, the half-life in data set [3] and in [4] was above 12.5 h in each case. Also, the result in [7] was Active.

On to `Cc1sc2c(c1C)C(c1ccc(C#CC=O)cc1)=N[C@@H](CC(=O)OC(C)(C)C)c1nncn1-2`, for which, in data set [1], the maximal effect (Emax) was 69%. This molecule yielded a DC50 in data set [2] of 0.703 µM. Also, the figures for the Ratio in data set [8] and in data set [9] were 2.12 and 0.28, respectively. Moreover, the figures for the half-life in data set [3] and in data set [4] were above 12.5 h and 8.83 h, respectively. Also, the result in the data set with K562 and in the data set on Jurkat was inactive. Moreover, the figures for the Activity in data set [10] and in [11] were 73% and above 90%, respectively.

Regarding `Cc1sc2c(c1C)C(c1ccc(NC(=O)CCl)cc1)=N[C@@H](CC(=O)OC(C)(C)C)c1nncn1-2`, the Emax in data set [12] was found to be 56%. This molecule also had a DC50 in data set [2] of 0.008 µM. Besides, the values for the half-life in data set [3] and in data set [4] were above 12.5 h and 8.85 h, respectively. For the same molecule, the outcome in the data set on Jurkat was inactive. For the same molecule, the Activity in data set [11] was above 90%.

Take `C=CS(=O)(=O)Nc1ccc(C2=N[C@@H](CC(=O)OC(C)(C)C)c3nncn3-c3sc(C)c(C)c32)cc1`: the maximal response (Emax) in data set [12] came to 95%. Besides, the DC50 in data set [2] is 0.001 µM. The half-life in data set [3] and in [4] was above 12.5 h each time. Also, the outcome with K562 and in the data set on Jurkat was inactive. Besides, the fold change (FC) in data set [13] is 1000.

For the molecule `Cc1sc2c(c1C)C(c1ccc(/C=C/C=O)cc1)=N[C@@H](CC(=O)OC(C)(C)C)c1nncn1-2`, the Emax in data set [1] was determined as 75%. The molecule further gave a DC50 in data set [2] of 0.064 µM. Besides, the results for the half-life in [3] and in data set [4] were above 12.5 h and 6.92 h, respectively. Also, the outcome in the data set on K562 and in the data set with Jurkat was inactive. Moreover, in [11], the Activity was above 90%.
